ChEMBL document CHEMBL4000217, “Structure-activity relationship of daptomycin analogues with substitution at (2S, 3R) 3-methyl glutamic acid position” (2017)
≈ marks a conversion by molar mass, not a printed value.

Test system: Staphylococcus aureus
Test: Antibacterial activity against Staphylococcus aureus isolate 42 […] by CLSI method
Format: functional

SMILES	MIC
CCCCCCCCCC(=O)N[C@@H](Cc1c[nH]c2ccccc12)C(=O)N[C@@H](CC(N)=O)C(=O)N[C@@H](CC(=O)O)C(=O)N[C@@H]1C(=O)NCC(=O)N[C@@H](CCCN)C(=O)N[C@@H](CC(=O)O)C(=O)N[C@H](C)C(=O)N[C@@H](CC(=O)O)C(=O)NCC(=O)N[C@H](CO)C(=O)N[C@@H]([C@H](C)CC(N)=O)C(=O)N[C@@H](CC(=O)c2ccccc2N)C(=O)O[C@@H]1C	32 µg/mL (≈ 19.8 µM)
CCCCCCCCCC(=O)N[C@@H](Cc1c[nH]c2ccccc12)C(=O)N[C@@H](CC(N)=O)C(=O)N[C@@H](CC(=O)O)C(=O)N[C@@H]1C(=O)NCC(=O)N[C@@H](CCCN)C(=O)N[C@@H](CC(=O)O)C(=O)N[C@H](C)C(=O)N[C@@H](CC(=O)O)C(=O)NCC(=O)N[C@H](CO)C(=O)N[C@@H](C(C)(C)CC(=O)O)C(=O)N[C@@H](CC(=O)c2ccccc2N)C(=O)O[C@@H]1C	64 µg/mL (≈ 39.2 µM)
CCCCCCCCCC(=O)N[C@@H](Cc1c[nH]c2ccccc12)C(=O)N[C@@H](CC(N)=O)C(=O)N[C@@H](CC(=O)O)C(=O)N[C@@H]1C(=O)NCC(=O)N[C@@H](CCCN)C(=O)N[C@@H](CC(=O)O)C(=O)N[C@H](C)C(=O)N[C@@H](CC(=O)O)C(=O)NCC(=O)N[C@H](CO)C(=O)N[C@@H]([C@H](CC)CC(=O)O)C(=O)N[C@@H](CC(=O)c2ccccc2N)C(=O)O[C@@H]1C	8 µg/mL (≈ 4.89 µM)
CCCCCCCCCC(=O)N[C@@H](Cc1c[nH]c2ccccc12)C(=O)N[C@H](CC(N)=O)C(=O)N[C@@H](CC(=O)O)C(=O)N[C@@H]1C(=O)NCC(=O)N[C@@H](CCCN)C(=O)N[C@@H](CC(=O)O)C(=O)N[C@H](C)C(=O)N[C@@H](CC(=O)O)C(=O)NCC(=O)N[C@H](CO)C(=O)N[C@@H]([C@H](C)CC(=O)O)C(=O)N[C@@H](CC(=O)c2ccccc2N)C(=O)O[C@@H]1C	0.5 µg/mL (≈ 0.309 µM)
CCCCCCCCCC(=O)N[C@@H](Cc1c[nH]c2ccccc12)C(=O)N[C@@H](CC(N)=O)C(=O)N[C@@H](CC(=O)O)C(=O)N[C@@H]1C(=O)NCC(=O)N[C@@H](CCCN)C(=O)N[C@@H](CC(=O)O)C(=O)N[C@H](C)C(=O)N[C@@H](CC(=O)O)C(=O)NCC(=O)N[C@H](CO)C(=O)N[C@@H](C(C)CC(=O)O)C(=O)N[C@@H](CC(=O)c2ccccc2N)C(=O)O[C@@H]1C (single isomer, unassigned) [DAPTOMYCIN]	128 µg/mL (≈ 79 µM)
